These compounds were tested against MAPKAP-K2 (Homo sapiens, UniProt P49137) (assay: MAPKAP-Kinase 2 Assay (33P-ATP peptide phosphorylation, filter plate)). Conditions: assays conducted at typically 1-100 μM.
Type: biochemical
Set-up: key: +: active; ++: more active; +++: very active
Method: MAPKAP-Kinase 2 Assay [Compound Preparation]
Compounds are dissolved in DMSO at a concentration of 3 mM and stored in aliquots at −20° C. Compounds in DMSO from these stock aliquots are diluted in 30% DMSO to produce initial working stock solutions of 1 mM and 3 mM. Both of these stock solutions are then subjected to 1:10 serial dilutions in 30% DMSO in order to prepare 3000, 1000, 300, 100, 30, 10, 3, 1, 0.1, 0.01 μM stock solutions. 5 μl of each stock solution is used per 50 μl reaction to give final assay concentrations of 300, 100, 30, 10, 3, 1, 0.3, 0.1, 0.01, 0.001 μM.
The kinase reaction is conducted in a round-bottomed polypropylene 96-well plate. MAPKAP-K2 is diluted to 25 mU/μl in diluent buffer (50 mM Tris/HCl. pH7.5, 0.1 mM EGTA, 0.1% (v/v) β-mercaptoethanol, 1 mg/ml BSA). 5 μl compound or 30% DMSO is added to each well followed by 25 μl substrate cocktail (10 μM ATP, 30 μM peptide (KKLNRTLSVA), 0.5 μCi ^33P-γ-ATP in 50 mM Tris pH7.5, 0.1 mM EGTA, 10 mM Mg-acetate, 0.1% BME). The reaction is initiated with the addition of 20 μl enzyme solution per well or 20 μl diluent buffer without enzyme. The plate is shaken for 10 sec and then left at room temperature for 30 min. The reaction is terminated with 50 μl 150 mM phosphoric acid. 90 μl of the reaction mixture is then transferred into a 96-well P81 filter plate (Millipore) and incubated at room temperature for 5 min. The filter plate is then washed 4 times with 200 μl 75 mM phosphoric acid per well on a plate vacuum manifold (Millipore) and dried in an oven for 2-3 h. Packard MicroScint ‘0’ (30 μl) is then added to each well, the plate is mixed for 30 min and subjected to liquid scintillation counting on a Packard TopCount.
[Interpretation] %Control=(X−B)/(Tot−B)×100 %Inhibition=100−% Control X=cpm of the test compound wells B=cpm of wells without enzyme Tot=cpm of wells with DMSO vehicle only

MAPKAP-K2, sequence (P49137 whole entry): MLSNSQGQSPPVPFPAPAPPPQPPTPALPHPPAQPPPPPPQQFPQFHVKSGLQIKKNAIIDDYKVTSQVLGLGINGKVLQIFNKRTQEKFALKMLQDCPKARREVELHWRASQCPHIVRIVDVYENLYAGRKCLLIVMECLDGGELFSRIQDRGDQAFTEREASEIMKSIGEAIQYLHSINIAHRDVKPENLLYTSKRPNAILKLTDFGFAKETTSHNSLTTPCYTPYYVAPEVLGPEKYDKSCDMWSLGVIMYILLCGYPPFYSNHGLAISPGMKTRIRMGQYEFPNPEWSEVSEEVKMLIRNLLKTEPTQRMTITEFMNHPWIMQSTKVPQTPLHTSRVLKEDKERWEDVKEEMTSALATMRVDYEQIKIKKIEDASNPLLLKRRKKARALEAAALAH

MAPKAP-K2 activity | SMILES
+++ | N[C@H]1CC[C@H](Nc2cc(Nc3cccc(Br)c3)n3nccc3n2)CC1 [Compound 83]
++ | CCOc1ccccc1Nc1cc(NC2CCC(N)CC2)nc2ccnn12 (stereo not shown) [Compound 54]
+++ | N[C@H]1CC[C@H](Nc2cc(Nc3ccc(F)c(Cl)c3)n3nccc3n2)CC1 [Compound 2]
+++ | C#CCNc1cc(NC2CCC(N)CC2)nc2ccnn12 (stereo not shown) [Compound 59]
++ | Cc1cccc(C)c1Nc1cc(NC2CCC(N)CC2)nc2ccnn12 (stereo not shown) [Compound 45]
+++ | N#Cc1cccc(Nc2cc(NC3CCC(N)CC3)nc3ccnn23)c1 (stereo not shown) [Compound 32]
++ | Fc1ccc(Nc2cc(NC3CCC(NCCCCc4ccccc4)CC3)nc3ccnn23)cc1Cl (stereo not shown) [Compound 131]
+++ | N[C@H]1CC[C@H](Nc2cc(Nc3cccc(OCc4ccccc4)c3)n3nccc3n2)CC1 [Compound 64]
+ | NCCNc1cc(Nc2ccc(F)c(Cl)c2)n2nccc2n1 [Compound 116]
++ | NC1CCC(Nc2cc(Nc3ccc4c(c3)OC(F)(F)O4)n3nccc3n2)CC1 (stereo not shown) [Compound 55]
+++ | NC1CCC(Nc2cc(Nc3cccc(Oc4ccccc4)c3)n3nccc3n2)CC1 (stereo not shown) [Compound 46]
+++ | CCOc1ccc(Nc2cc(NC3CCC(N)CC3)nc3ccnn23)cc1 (stereo not shown) [Compound 35]
+++ | N[C@H]1CC[C@H](Nc2cc(Nc3ccccc3)n3nccc3n2)CC1 [Compound 10]
+++ | NC1CCC(Nc2cc(Nc3ccc(OCc4ccccc4)cc3)n3nccc3n2)CC1 (stereo not shown) [Compound 52]
+ | NC1CCN(c2cc(Nc3ccc(F)c(Cl)c3)n3nccc3n2)CC1 [Compound 95]
++ | CC(C)NC1CCC(Nc2cc(Nc3ccc(F)c(Cl)c3)n3nccc3n2)CC1 (stereo not shown) [Compound 135]
+++ | N[C@H]1CC[C@H](Nc2cc(Nc3ccc(F)cc3)n3nccc3n2)CC1 [Compound 16]

MAPKAP-K2 activity | SMILES
+++ | CCCc1ccc(Nc2cc(NC3CCC(N)CC3)nc3ccnn23)cc1 (stereo not shown) [Compound 36]
++ | NC1CCCN(c2cc(Nc3ccc(F)c(Cl)c3)n3nccc3n2)C1 (stereo not shown) [Compound 72]
+++ | NC1CCC(Nc2cc(Nc3ccc(Br)cc3)n3nccc3n2)CC1 (stereo not shown) [Compound 84]
+ | Fc1ccc(Nc2cc(NC3CCC(NCC4CCCCC4)CC3)nc3ccnn23)cc1Cl (stereo not shown) [Compound 126]
+++ | Cc1ccc(Nc2cc(N[C@H]3CC[C@H](N)CC3)nc3ccnn23)cc1C [Compound 77]
+++ | N[C@H]1CC[C@H](Nc2cc(Nc3ccc(Oc4ccccc4)cc3)n3nccc3n2)CC1 [Compound 21]
++ | CCCCCNC1CCC(Nc2cc(Nc3ccc(F)c(Cl)c3)n3nccc3n2)CC1 (stereo not shown) [Compound 125]
++ | Fc1ccc(Nc2cc(NC3CCC(NCc4ccoc4)CC3)nc3ccnn23)cc1Cl (stereo not shown) [Compound 128]
+++ | C=C(C)CNc1cc(NC2CCC(N)CC2)nc2ccnn12 (stereo not shown) [Compound 58]
+++ | NC1CCC(Nc2cc(Nc3ccc(Oc4ccc(Cl)cc4)cc3)n3nccc3n2)CC1 (stereo not shown) [Compound 41]
+ | CN1CCN(Nc2cc(Nc3ccc(F)c(Cl)c3)n3nccc3n2)CC1 [Compound 50]
++ | COc1ccc(Nc2cc(NC3CCC(N)CC3)nc3ccnn23)c(C)c1 (stereo not shown) [Compound 114]
+++ | NC1CCC(Nc2cc(Nc3ccccc3I)n3nccc3n2)CC1 (stereo not shown) [Compound 101]
++ | NC1CCC(Nc2cc(NCc3cccc(I)c3)n3nccc3n2)CC1 (stereo not shown) [Compound 53]
+++ | Ic1ccc(Nc2cc(NC3CCCNC3)nc3ccnn23)cc1 (stereo not shown) [Compound 106]
+++ | COc1ccc(Cl)c(Nc2cc(NC3CCC(N)CC3)nc3ccnn23)c1 (stereo not shown) [Compound 99]
+++ | COc1cccc(Nc2cc(N[C@H]3CC[C@H](N)CC3)nc3ccnn23)c1 [Compound 62]
